The values below are quoted from earlier work in patent US6297235A, “Triazolopyridazine derivatives for treating anxiety and enhancing cognition” (Merck Sharp & Dohme Ltd., priority 1997, dated 2001).

For data set [1] the following is noted: in vivo.
For data set [2] the following is noted: reported by McNamara and Skelton, Psychobiology, 21:101-108.

Turning to `COC(=O)c1cc2c(cn1)[nH]c1ccccc12` [β-CCM], the “proconvulsant or convulsant effect” value in data set [1] is given as “proconvulsant or convulsant”. Moreover, the “spatial learning in the Morris watermaze” value in data set [2] is recorded as “enhanced spatial learning”.
